ChEMBL document CHEMBL5038569, “Targeting RECQL5 Functions, by a Small Molecule, Selectively Kills Breast Cancer in Vitro and in Vivo” (J Med Chem, 2021)
Calls of active or inactive are those of the source. No cut-off for these calls is given here.

Columns and labels:
MCF7 [1] = assay: Cytotoxicity against human MCF7 cells expressing RECQL5-RFP wild type helicase assessed as sensitizing activity by measuring colony survival at 5 to 20 uM measured after 8 to 10 days by clonogenic survival assay; type: functional, cell-based; conditions: dose 5-20 µM, time 8-10 day
MDA-MB-231 = assay: Induction of apoptosis in RECQL5 depleted human MDA-MB-231 cells assessed as cell death measured after 72 hrs by propidium iodide/RNase A staining based flow cytometric analysis; type: functional
MCF7 [2] = assay: Induction of DNA damage in RECQL5 knock out human MCF7 cells assessed as double strand breaks by measuring increase in phosphorylation of ATR at S428 residue at 20 uM measured up to 24 hrs by Western blot analysis; type: functional, cell-based; conditions: time hrs <=24
[3] = Toxicity in nude mouse xenografted with human MCF7 cells assessed as morphological changes in liver at 50 mg/kg, po administered via oral gavage and measured after 30 days; type: organism-based; conditions: in vivo, 720 h, time 30 day
MCF7 [4] = assay: Cytotoxicity against human MCF7 cells expressing wild type RECQL5 assessed as cell growth inhibition measured after 72 hrs by MTT assay; type: functional; conditions: dose 6-50 µM
MCF7 [5] = assay: Induction of DNA damage in human MCF7 cells expressing wild type RECQL5 assessed as double strand breaks by measuring increase in phosphorylation of p53 at S15 residue at 20 uM measured up to 24 hrs by Western blot analysis; type: functional, cell-based; conditions: time hrs <=24
MCF7 [6] = assay: Inhibition of homologous recombinant repair in RECQL5 knock out human MCF7 cells expressing SceGFP/iGFP mutants assessed as I-SceI induced generation of resected double stand breaks by measuring GFP-expressing cells at 10 uM measured after 48 hrs by flow cytometry analysis; type: functional, cell-based
MCF7 [7] = assay: Cytotoxicity against human MCF7 cells expressing wild type RECQL5 assessed as inhibition of colony formation measured after 8 to 10 days by clonogenic survival assay; type: functional, cell-based
MCF7 [8] = assay: Cytotoxicity against RECQL5 knock out human MCF7 cells expressing […] assessed as reduction in colony formation at 10 uM measured after 8 to 10 days by clonogenic survival assay; type: functional, cell-based; conditions: time 8-10 day
T47D [9] = assay: Induction of DNA damage in human T47D cells expressing wild type RECQL5 assessed as double strand breaks by measuring increase in gamma-H2AX foci formation incubated for 24 hrs by immunofluorescence microscopic analysis; type: functional, cell-based; conditions: dose 0-20 µM
MCF7 [10] = assay: Effect on homologous recombinant repair in RECQL5 knock out human MCF7 cells assessed as accumulation of NBS1 protein on chromatin at 20 uM incubated for 4 to 24 hrs by Western blot analysis; type: functional, cell-based; conditions: time 4-24 hrs
MCF7 [11] = assay: Cytotoxicity against RECQL5 knock out human MCF7 cells assessed as inhibition of colony formation measured after 8 to 10 days by clonogenic survival assay; type: functional, cell-based
MCF7 [12] = assay: Induction of cell sensitization to cisplatin in human MCF-7 cells assessed as reduction in colony formation at 5 uM measured after 8 to 10 days by clonogenic survival assay; type: functional, cell-based; conditions: time 8-10 day
MCF7 [13] = assay: Effect on homologous recombinant repair in RECQL5 knock out human MCF7 cells assessed as accumulation of MRE11 protein on chromatin at 20 uM incubated for 4 to 24 hrs by Western blot analysis; type: functional, cell-based; conditions: time 4-24 hrs
T47D [14] = assay: Cytotoxicity against ER/PR-positive HER2-negative CRISPR/Cas9 engineered human T47D cells expressing wild type RECQL5 and p53 mutant assessed as reduction in colony formation measured after 8 to 10 days by clonogenic survival assay; type: functional, cell-based; conditions: time 8-10 day
MCF7 [15] = assay: Antitumor activity against RECQL5 knock out human MCF7 cells xenografted in nude mouse assessed as reduction in tumor growth at 50 mg/kg, po administered as single dose via gavage measured after 30 days; type: functional, organism-based; conditions: time 30.0 day
[16] = Chronic toxicity in […] mouse assessed as effect on food/water uptake at 100 mg/kg, po administered as single dose via gavage measured for 30 days; type: organism-based; conditions: in vivo, 720 h, time 30 day
MCF7 [17] = assay: Induction of mitotic catastrophe phenotype in human MCF7 cells assessed as nuclear bridge formation at 20 uM pretreated with cisplatin for 8 hrs followed by compound addition and measured after 24 hrs by immunofluorescence microscopic analysis; type: functional, cell-based
[18] = Inhibition of full length His-tagged human RECQL5 expressed in Escherichia coli incubated for 15 mins by fluorescence based assay
MCF7 [19] = assay: Induction of mitotic catastrophe phenotype in human cisplatin-resistant MCF7 cells assessed as fused nucleus at 20 uM pretreated with cisplatin for 8 hrs followed by compound addition and measured after 24 hrs by immunofluorescence microscopic analysis; type: functional, cell-based
MCF7 [20] = assay: Cytotoxicity against human MCF7 cells with shRNA-mediated BLM depletion assessed as reduction in cell viability at 6 to 25 uM measured after 8 to 10 days by clonogenic survival assay; type: functional, cell-based; conditions: dose 6-25 µM, time 8-10 day
MCF7 [21] = assay: Effect on NHEJ-mediated double strand break repair in human MCF7 cells expressing wild type RECQL5 assessed as accumulation of KU80 on chromatin at 20 uM measured up to 24 hrs by Western blot analysis; type: cell-based; conditions: time hrs <=24
MCF7 [22] = assay: Inhibition of homologous recombinant repair in human MCF7 cells expressing RECQL5 wildtype assessed as stabilization of RAD51-RECQL5 interaction by measuring increase in RAD51 foci formation at 20 uM measured after 4 to 24 hrs by immunofluorescence microscopic analysis; type: functional, cell-based; conditions: time 4-24 hrs
MCF7 [23] = assay: Induction of DNA damage in human MCF7 cells expressing wild type RECQL5 assessed as double strand breaks by measuring increase in phosphorylation of ATM at S1981 residue at 20 uM measured up to 24 hrs by Western blot analysis; type: functional, cell-based; conditions: time hrs <=24
MCF7 [24] = assay: Cytotoxicity against human MCF7 cells with shRNA-mediated RECQL1 depletion assessed as reduction in cell viability at 6 to 25 uM measured after 8 to 10 days by clonogenic survival assay; type: functional, cell-based; conditions: dose 6-25 µM, time 8-10 day
MCF7 [25] = assay: Effect on NHEJ-mediated double strand break repair in RECQL5 knock out human MCF7 cells assessed as accumulation of KU80 on chromatin at 20 uM measured up to 24 hrs by Western blot analysis; type: cell-based; conditions: time hrs <=24
[26] = Chronic toxicity in […] mouse assessed as change in body weight at 100 mg/kg, po administered as single dose via gavage measured for 30 days; type: organism-based; conditions: in vivo, 720 h, time 30 day
MCF7 [27] = assay: Cytotoxicity against human MCF7 cells expressing RECQL5-RFP K58M helicase dead mutant assessed as sensitizing activity by measuring colony survival at 5 to 20 uM measured after 8 to 10 days by clonogenic survival assay; type: functional, cell-based; conditions: dose 5-20 µM, time 8-10 day
MCF7 [28] = assay: Induction of DNA damage in RECQL5 knock out human MCF7 cells assessed as double strand breaks by measuring increase in phosphorylation of CHK1 at S345 residue at 20 uM measured up to 24 hrs by Western blot analysis; type: functional, cell-based; conditions: time hrs <=24
[29] = Toxicity in […] mouse assessed as fold change in creatinine level at 100 mg/kg, po administered as single dose via gavage measured after 30 days relative to control; type: organism-based; conditions: in vivo, 720 h, time 30 day
MCF7 [30] = assay: Induction of DNA damage in RECQL5 knock out human MCF7 cells assessed as double strand breaks by measuring increase in phosphorylation of RPA2 at 20 uM measured after 4 to 24 hrs by Western blot analysis; type: functional, cell-based; conditions: time 4-24 hrs

Q: Which results are given for `O=C(Nc1cc(C(F)(F)F)cc(C(F)(F)F)c1)N[C@@H](c1ccccc1)c1nnc(SCc2ccccc2)o1`?
A: Activity (MCF7 [1]): Active; Activity (MDA-MB-231): inactive; Activity (MCF7 [2]): inactive; Activity [3]: Non-Toxic; IC20 (MCF7 [4]): 8.2 µM; Activity (MCF7 [5]): Active; inhibition (MCF7 [6]): inactive; IC50 (MCF7 [7]): 4.8 µM; Activity (MCF7 [8]): inactive; Activity (T47D [9]): Dose-Dependent Effect; Activity (MCF7 [10]): inactive; IC50 (MCF7 [11]): 19.6 µM; Activity (MCF7 [12]): Active; Activity (MCF7 [13]): inactive; Activity (T47D [14]): Active; Activity (MCF7 [15]): inactive; Activity [16]: Non-Toxic; Activity (MCF7 [17]): Active; IC50 [18]: 0.0463 µM; Activity (MCF7 [19]): Active; Activity (MCF7 [20]): Active; Activity (MCF7 [21]): inactive; inhibition (MCF7 [22]): Active; Activity (MCF7 [23]): Active; Activity (MCF7 [24]): Active; Activity (MCF7 [25]): inactive; Activity [26]: Non-Toxic; Activity (MCF7 [27]): Active; Activity (MCF7 [28]): inactive; fold change (FC) [29]: 1.05; Activity (MCF7 [30]): inactive
